Results published in patent US20100016343A1 (WYETH, priority 2008, published 2010).
Read-outs that look alike come from different tables or passages of the source.

How the values were obtained:
[1] = target: T1, rat-alpha7-nAChR (Rattus norvegicus, UniProt Q05941); test: functional FLIPR assay, alpha7 nAChR stably expressed in GH4C1 cells; type: cell-based
T1 construct: expressed in transfected cells
Source text: Rat GH4C1 cells were then transfected with the rat receptor, cloned and analyzed for functional alpha7 nicotinic receptor expression employing a FLIPR assay to measure changes in intracellular calcium concentrations.
The FLIPR system allows the measurements of real time Ca^2+-concentration changes in living cells using a Ca^2+ sensitive fluorescence dye (such as Fluo4). This instrument enables the screening for agonists and antagonists for alpha 7 nAChR channels stably expressed in GH4C1 cells.
GH4C1 cells stably transfected with rat-alpha7-nAChR (see above) were used. These cells are poorly adherent and therefore pretreatment of flasks and plates with poly-D-lysine was carried out. Cells are grown in 150 cm^2 T-flasks, filled with 30 ml of medium at 37° C. and 5% CO2.
EC50 and IC50 values were calculated using the IDBS XLfit4.1 software package employing a sigmoidal concentration-response (variable slope) equation:
Y=Bottom+((Top−Bottom)/(1+((EC50/X)̂HillSlope))
Certain compounds of the present disclosure were tested using the functional FLIPR primary screening assay employing the stable recombinant GH4C1 cell line expressing the alpha7 nAChR.

[2] = target: T2, alpha3 (ganglionic) nACh receptors (Homo sapiens, UniProt P30926+P32297); test: calcium-monitoring FLIPR selectivity assay using the native SH-SY5Y cell line; type: cell-based; conditions: read-out: Alpha 3 EC50
T2 construct: using the native SH-SY5Y cell line; endogenous in cells; host or cells: SH-SY5Y
Source text: Functional FLIPR assays were developed in order to test the selectivity of compounds against the alpha1 (muscular) and alpha3 (ganglionic) nACh receptors and the structurally related 5-HT3 receptor. […] In order to test selectivity against the 5-HT3 receptor, a recombinant cell line was constructed expressing the human 5-HT3A receptor in HEK 293 cells and a calcium-monitoring FLIPR assay employed.

[3] = target: CYP2D6 (Homo sapiens, UniProt P10635); test: CYP2D6 % inhibition; type: in vitro ADME
[4] = target: CYP3A4 (Homo sapiens, UniProt P08684); test: CYP3A4 % inhibition; type: in vitro ADME
[5] = target: CYP2C9 (Homo sapiens, UniProt P11712); test: CYP2C9 % inhibition; type: in vitro ADME
[6] = GH4C1 cell line expressing the alpha7 nAChR, concentration-response curves, read-out: Alpha 7 EC50

T2 sequence (P32297 32-505): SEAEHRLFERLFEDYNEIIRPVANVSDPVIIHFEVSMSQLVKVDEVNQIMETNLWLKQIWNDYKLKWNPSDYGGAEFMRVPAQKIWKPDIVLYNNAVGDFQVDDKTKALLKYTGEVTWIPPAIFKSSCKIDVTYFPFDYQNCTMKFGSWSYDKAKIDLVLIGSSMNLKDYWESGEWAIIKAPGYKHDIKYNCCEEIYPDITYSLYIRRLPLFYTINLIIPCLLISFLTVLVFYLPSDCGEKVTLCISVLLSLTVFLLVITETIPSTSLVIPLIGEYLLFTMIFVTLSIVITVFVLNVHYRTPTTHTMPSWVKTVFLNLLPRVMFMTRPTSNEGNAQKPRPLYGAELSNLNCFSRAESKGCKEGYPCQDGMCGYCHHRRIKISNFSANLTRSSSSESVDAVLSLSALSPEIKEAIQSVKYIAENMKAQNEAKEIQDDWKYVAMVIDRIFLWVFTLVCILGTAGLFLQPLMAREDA
T2 sequence (P30926 22-498): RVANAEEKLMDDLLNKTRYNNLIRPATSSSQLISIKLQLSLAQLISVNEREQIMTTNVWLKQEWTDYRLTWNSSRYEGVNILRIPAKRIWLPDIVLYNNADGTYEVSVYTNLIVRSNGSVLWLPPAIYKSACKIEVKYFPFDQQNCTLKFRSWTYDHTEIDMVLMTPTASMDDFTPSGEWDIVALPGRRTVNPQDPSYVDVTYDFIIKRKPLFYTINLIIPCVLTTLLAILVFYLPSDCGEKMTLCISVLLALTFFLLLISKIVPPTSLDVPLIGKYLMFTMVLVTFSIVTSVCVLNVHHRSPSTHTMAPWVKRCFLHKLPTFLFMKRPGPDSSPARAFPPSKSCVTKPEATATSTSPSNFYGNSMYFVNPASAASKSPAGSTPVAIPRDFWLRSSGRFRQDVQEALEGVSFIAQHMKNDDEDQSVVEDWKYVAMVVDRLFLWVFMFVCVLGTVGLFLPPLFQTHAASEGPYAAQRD
Chain of CYP2D6 (P10635 whole entry, species assumed): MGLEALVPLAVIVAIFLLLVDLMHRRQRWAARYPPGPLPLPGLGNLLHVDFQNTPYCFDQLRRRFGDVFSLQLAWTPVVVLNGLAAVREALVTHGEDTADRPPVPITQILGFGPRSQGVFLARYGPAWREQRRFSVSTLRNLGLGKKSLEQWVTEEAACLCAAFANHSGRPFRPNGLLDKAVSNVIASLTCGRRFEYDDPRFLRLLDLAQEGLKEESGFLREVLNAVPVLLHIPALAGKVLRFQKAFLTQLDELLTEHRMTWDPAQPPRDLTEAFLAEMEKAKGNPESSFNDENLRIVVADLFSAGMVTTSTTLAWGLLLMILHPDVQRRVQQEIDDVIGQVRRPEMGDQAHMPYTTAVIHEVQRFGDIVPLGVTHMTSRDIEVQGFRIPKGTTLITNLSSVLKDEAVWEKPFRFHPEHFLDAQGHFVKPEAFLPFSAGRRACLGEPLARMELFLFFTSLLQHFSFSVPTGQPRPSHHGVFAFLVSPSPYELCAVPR
Chain of CYP2C9 (P11712 whole entry, species assumed): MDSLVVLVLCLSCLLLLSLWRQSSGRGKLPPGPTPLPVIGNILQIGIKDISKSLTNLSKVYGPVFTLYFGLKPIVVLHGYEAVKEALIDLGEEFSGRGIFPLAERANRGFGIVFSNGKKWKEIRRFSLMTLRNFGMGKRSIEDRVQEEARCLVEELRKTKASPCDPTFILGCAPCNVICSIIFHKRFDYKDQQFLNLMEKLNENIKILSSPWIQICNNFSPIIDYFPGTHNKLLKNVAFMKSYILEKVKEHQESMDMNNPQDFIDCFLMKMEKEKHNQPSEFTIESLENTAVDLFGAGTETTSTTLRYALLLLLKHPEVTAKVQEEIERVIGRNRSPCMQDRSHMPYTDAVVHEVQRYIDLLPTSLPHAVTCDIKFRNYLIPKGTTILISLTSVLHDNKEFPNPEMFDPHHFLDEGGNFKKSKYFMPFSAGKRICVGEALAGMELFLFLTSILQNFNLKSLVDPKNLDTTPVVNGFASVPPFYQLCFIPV
Chain of CYP3A4 (P08684 whole entry, species assumed): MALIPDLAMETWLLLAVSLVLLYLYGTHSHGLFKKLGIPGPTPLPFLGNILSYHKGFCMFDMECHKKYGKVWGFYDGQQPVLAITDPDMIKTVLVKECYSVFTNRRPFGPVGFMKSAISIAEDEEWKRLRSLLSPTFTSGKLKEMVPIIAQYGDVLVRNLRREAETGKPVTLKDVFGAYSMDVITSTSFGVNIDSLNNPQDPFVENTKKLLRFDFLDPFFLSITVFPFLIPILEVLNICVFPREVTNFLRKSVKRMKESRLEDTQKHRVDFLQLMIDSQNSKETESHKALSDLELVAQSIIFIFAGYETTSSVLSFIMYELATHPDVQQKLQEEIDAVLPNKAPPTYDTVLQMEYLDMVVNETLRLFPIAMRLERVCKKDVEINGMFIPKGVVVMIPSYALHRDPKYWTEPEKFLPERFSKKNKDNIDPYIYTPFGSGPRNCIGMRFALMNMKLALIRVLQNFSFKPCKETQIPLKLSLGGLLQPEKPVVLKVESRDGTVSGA
T1 sequence (Q05941 23-502): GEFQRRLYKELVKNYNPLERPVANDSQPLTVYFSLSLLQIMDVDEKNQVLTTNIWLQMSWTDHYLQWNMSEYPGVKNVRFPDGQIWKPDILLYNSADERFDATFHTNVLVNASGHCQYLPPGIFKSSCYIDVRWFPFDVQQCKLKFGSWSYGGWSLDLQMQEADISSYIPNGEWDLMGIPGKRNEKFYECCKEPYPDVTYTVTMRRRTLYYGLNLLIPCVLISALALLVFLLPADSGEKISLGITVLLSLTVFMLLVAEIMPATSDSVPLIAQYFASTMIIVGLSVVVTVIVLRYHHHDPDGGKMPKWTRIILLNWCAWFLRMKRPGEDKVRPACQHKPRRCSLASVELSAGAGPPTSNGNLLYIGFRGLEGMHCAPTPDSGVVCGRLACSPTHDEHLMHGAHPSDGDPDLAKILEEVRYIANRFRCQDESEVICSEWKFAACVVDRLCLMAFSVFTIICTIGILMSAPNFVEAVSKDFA

Structure (SMILES)	EC50 [1, 6]	EC50 [2]	CYP2D6 % inhibition [3]	CYP3A4 % inhibition [4]	CYP2C9 % inhibition [5]	EC50 ([1]; assay validation with agonists, alpha7 nAChR in GH4C1 cells, concentration range 0.001 to 30 microM, read-out: EC50)
Cn1cc(-c2ccc(NC(=O)NCCCCN3CCCCC3)cn2)cn1	450 nM	> 30000 nM	1%	−4%	3%	
Cn1cc(-c2ccc(NC(=O)NCCCCN3CCCCC3)cc2)cn1	130 nM	5040 nM	45%	68%	9%	
O=C(NCCCCN1CCCCC1)Nc1ccc(-c2ccccc2F)nc1	200 nM	5550 nM	14%	−3%	−10%	
O=C(NCCCCN1CCCCC1)Nc1ccc(-c2ccccc2F)cc1	190 nM	1500 nM	75%	−17%	−1%	
COc1ccc(F)c(-c2ccc(NC(=O)NCCCCN3CCCCC3)cn2)c1	80 nM	4340 nM	18%	43%	10%	
COc1ccc(F)c(-c2ccc(NC(=O)NCCCCN3CCCCC3)cc2)c1	100 nM	2320 nM	83%	51%	−26%	
COc1ccccc1-c1ccc(NC(=O)NCCCCN2CCCCC2)cn1	260 nM	3860 nM	8%	8%	6%	
COc1ccccc1-c1ccc(NC(=O)NCCCCN2CCCCC2)cc1	170 nM	1080 nM	38%	5%	−2%	
O=C(NCCCCN1CCCCC1)Nc1ccc(-c2cccs2)nc1	100 nM	8430 nM	7%	2%	2%	
O=C(NCCCCN1CCCCC1)Nc1ccc(-c2cccs2)cc1	190 nM	3560 nM	69%	24%	−5%	
O=C(NCCCCN1CCCCC1)Nc1ccc(-c2cccc(F)c2)nc1	180 nM		10%	26%	0%	
O=C(NCCCCN1CCCCC1)Nc1ccc(-c2cccc(F)c2)cc1	110 nM	1780 nM	62%	−21%	−12%	
O=C(NCCCCN1CCCCC1)Nc1ccc(-c2cccnc2)nc1	590 nM	9880 nM	22%	0%	−3%	
O=C(NCCCCN1CCCCC1)Nc1ccc(-c2cccnc2)cc1	100 nM	3610 nM	72%	2%	−22%	
O=C(NCCCCN1CCCCC1)Nc1ccc(-c2ccc(F)cc2)nc1		9530 nM				
O=C(NCCCCN1CCCCC1)Nc1ccc(-c2ccc(F)cc2)cc1	220 nM	1730 nM	65%	−13%	−16%	
O=C(NCCCC[N+]1([O-])CCCCC1)Nc1ccc(-c2ccc(F)cc2)nc1	460 nM	9800 nM				
O=C(NCCCCN1CCCCC1)Nc1ccc(-c2ccc(F)nc2)nc1	720 nM		8%	−19%	−10%	
O=C(NCCCCN1CCCCC1)Nc1ccc(-c2ccc(F)nc2)cc1	130 nM	1210 nM	21%	−22%	−18%	
COc1ccc(-c2ccc(NC(=O)NCCCCN3CCCCC3)cn2)cc1	260 nM	4120 nM	54%	−8%	−15%	
COc1ccc(-c2ccc(NC(=O)NCCCCN3CCCCC3)cc2)cc1	220 nM	1770 nM	97%	32%	−14%	
O=C(NCCCCN1CCCCC1)Nc1ccc(-c2ccc3c(c2)OCO3)nc1	140 nM		79%	65%	6%	
O=C(NCCCCN1CCCCC1)Nc1ccc(-c2ccc3c(c2)OCO3)cc1	100 nM	1720 nM	97%	74%	0%	
O=C(NCCCCN1CCCCC1)Nc1ccc(-c2ccncc2)nc1	400 nM		12%	−1%	1%	
O=C(NCCCCN1CCCCC1)Nc1ccc(-c2ccncc2)cc1	180 nM	2950 nM	48%	17%	6%	
O=C(NCCCCN1CCCCC1)Nc1ccc(-c2ccccc2)nc1	90 nM	10100 nM	6%	−21%	−4%	
O=C(NCCCCN1CCCCC1)Nc1ccc(-c2ccccc2)cc1	310 nM	2840 nM	64%	51%	2%	
C[N+]1(C)CCN(c2ccccc2)CC1 [DMPP, reference compound]						980 ± 470 nM
COc1ncccc1-c1ccc(NC(=O)NCCCCN2CCCCC2)cn1 [drawing 62]		15700 nM	8%	−4%	−12%	
COc1ncccc1-c1ccc(NC(=O)NCCCCN2CCCCC2)cn1 [drawing 63]		5670 nM	8%	−21%	−36%	
